Measurements taken from patent publication US10793567B2, “Bicyclic inhibitors of histone deacetylase” (Rodin Therapeutics, Inc., priority 2017, dated 2020).

Tests used:
[1] = test system: human megakaryocyte progenitors (CFU-Mk); assay: Human megakaryocyte progenitor CFC proliferation (CFU-Mk) in normal bone marrow; type: cell-based; details: for IC50: Homo sapiens, 6-point dose response, top concentration 20 μM, read-out: CFU-Mk Total IC50; for % Control CFU-Mk Total @ 10 uM dose: 3-point dose response
Procedure: Compounds were tested to evaluate the potential effects on human megakaryocyte progenitor proliferation in the CFU-Mk assay. Clonogenic progenitors of the human megakaryocyte (CFU-Mk) lineage were assessed in a semi-solid, collagen-based matrix containing rhIL-3 (10 ng/mL), rhIL-6 (10 ng/mL) and rhTpo (50 ng/mL).
Normal human bone marrow light density cells (lot #0170525), derived from normal bone marrow (NorCal Biologics, California), were stored at −152° C. until required for the assay. On the day of the experiment, the cells were thawed rapidly, the contents of each vial was diluted in 10 mL of Iscove's modified Dulbecco's medium containing 10% fetal bovine serum (IMDM+10% FBS) and washed by centrifugation (approximately 1200 r.p.m. for 10 minutes, room temperature). The supernatant was discarded and the cell pellets resuspended in a known volume of IMDM+10% FBS. A cell count (3% glacial acetic acid) and viability assessment (trypan blue exclusion test) was performed for the bone marrow sample.
All compounds were used as solutions in DMSO at 10 mM. Two different dosing paradigms were used depending on the study, either a six point dose response with top concentration of 20 μM, or a three point dose response with a top concentration of 10 μM. In six point dose response studies, compounds were tested at six distinct concentrations (20, 6.7, 2.2, 0.74, 0.25 and 0.082 μM), with serial dilutions prepared from the 10 mM stock concentration to achieve concentrations of 6.7, 2.2, 0.74, 0.25 and 0.082 mM. When added to the collagen-based media at 1:1000 (v/v), the final desired test concentrations were achieved. In order to generate the 20 μM final concentration, 8 μL of the 10 mM stock was added to the appropriately labeled tube. For the three point dose response studies, serial dilutions were prepared from the stock concentration to achieve concentrations of 2 and 0.4 mM. When added to the collagen-based media at 1:1000 (v/v), the final test concentrations of 10, 2 and 0.4 μM were achieved.
Clonogenic progenitors of the human megakaryocytic (CFU-Mk) lineages were set up in the media formulation described above. All compounds were added to the medium to give the final desired concentrations (20, 6.67. 2.22, 0.74, 0.25, and 0.082 μM). Solvent control cultures (containing no compound but 0.2% DMSO), as well as a standard control (containing no compound and no DMSO), were also initiated.
Human megakaryocyte progenitor assays were initiated with 1.8×10^5 cells per culture (lot #0170525). Following 14-16 days in culture, the cultures were transferred from the 35 mm dishes to labeled glass slides, were fixed (methanol/acetone) and then stained using an anti-human CD41 antibody and an alkaline phosphate detection system according to manufacturers' instructions. The colonies were assessed microscopically and scored by trained personnel and divided into the following categories based on size; CFU-Mk (3-20), CFU-Mk (21-49), CFU-Mk (≥50).
The mean±1 standard deviation of three replicate cultures was calculated for the progenitors. Two-tailed standard t-tests were performed to assess if there was a difference in the number of colonies generated between solvent control and treated cultures. Due to the potential subjectivity of colony enumeration, a p value of less than 0.01 is deemed significant. To calculate the concentration of 50% inhibition of colony growth (IC50) for each compound, a dose response curve was generated plotting the log of the compound concentration versus the percentage of control colony growth using Graphpad Prism 7.
Megakaryocyte colony enumeration was performed by trained personnel. In addition, the distribution of colony types as well as general colony and cellular morphology was analyzed. The variance in colony number detected in replicate cultures was representative of the historical coefficient of variation for colony enumeration using these types of assays. […]

HDAC2 = HDAC2 (Homo sapiens (Human), UniProt Q92769); assay: HDAC2 enzymatic assay (Caliper LabChip, peptide deacetylation); type: biochemical; details: 17 hours, 25° C.
Chain of HDAC2 (Q92769 whole entry): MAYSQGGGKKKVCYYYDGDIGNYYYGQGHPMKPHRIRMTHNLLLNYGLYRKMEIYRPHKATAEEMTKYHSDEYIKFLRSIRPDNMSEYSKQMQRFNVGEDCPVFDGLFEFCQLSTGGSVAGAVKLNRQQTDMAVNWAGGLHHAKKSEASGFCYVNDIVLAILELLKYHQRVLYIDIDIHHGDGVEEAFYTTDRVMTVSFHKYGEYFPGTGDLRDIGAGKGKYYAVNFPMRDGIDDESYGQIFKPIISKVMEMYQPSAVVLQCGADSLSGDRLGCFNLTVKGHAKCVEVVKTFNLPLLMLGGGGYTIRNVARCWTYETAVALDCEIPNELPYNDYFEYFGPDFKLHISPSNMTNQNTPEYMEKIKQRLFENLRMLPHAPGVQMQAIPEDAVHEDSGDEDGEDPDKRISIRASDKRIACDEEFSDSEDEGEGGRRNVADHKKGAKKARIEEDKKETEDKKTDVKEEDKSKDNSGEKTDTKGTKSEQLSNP
Procedure: The following describes an assay protocol for measuring the deacetylation of a peptide substrate by the enzymes HDAC2 or HDAC1. Enzyme, substrate, and cofactors are combined in a well of a microtiter plate and incubated for […] at 25° C. At the end of the incubation, the reaction is quenched by the addition of an SDS-containing buffer. Substrate and product are separated and quantified electrophoretically using the microfluidic-based LabChip 3000 Drug Discovery System from Caliper Life Sciences. The peptide substrate used in this assay is FAM-TSRHK(AC)KL-CONH2 (FAM is carboxyfluorescein). Peptide should be >98% purity by Capillary Electrophoresis. • 1. To a well of a 384-well plate, add 5 μL of 2× enzyme buffer. Using Labcyte Echo 550, add 100 nl compound. Enzyme and compound may be pre-incubated at this time if desired. • 2. Add 5 μL of 2× substrate buffer. • 3. Incubate plate at 25° C. for 17 hours. • 4. Terminate reaction by adding 40 μL of 1.55× stop buffer. • 5. Create job on a Caliper LabChip® 3000 Drug Discovery System. • 6. […]
Substrate and product peptides present in each sample are separated electrophoretically using the LabChip 3000 capillary electrophoresis instrument. As substrate and product peptides are separated, two peaks of fluorescence are observed. Change in the relative fluorescence intensity of the substrate and product peaks is the parameter measured, reflecting enzyme activity. Capillary electrophoregramms (RDA acquisition files) are analyzed using HTS Well Analyzer software (Caliper Life Sciences). The […] in each sample is determined as the product to sum ratio (PSR): P/(S+P), where P is the peak height of the product peptide and S is the peak height of the substrate peptide. For each compound, enzyme activity is measured at various concentrations (12 concentrations of compound spaced by 3× dilution intervals). […]
The IC50 values of inhibitors are determined by fitting the inhibition curves (Pinh versus inhibitor concentration) by 4 parameter sigmoidal dose-response model using XLfit 4 software (IBDS). […]

| IC50 (HDAC2) | SMILES | IC50 [1] | % Control CFU-Mk Total @ 10 uM dose [1] |
| --- | --- | --- | --- |
| – | Cc1ncc2c(n1)CN(C(=O)Nc1nc(-c3ccc(F)s3)ccc1N)C2 [Compound 2] | 2000 nM | – |
| – | CCc1ncc2c(n1)CN(C(=O)Nc1nc(-c3cccs3)ccc1N)C2 [Compound 3] | 2000 nM | – |
| – | Cc1ncc(-c2ccc(N)c(NC(=O)N3Cc4cn(CC(F)F)nc4C3)n2)s1 [Compound 5] | – | 36% |
| 500 to 5000 nM | CCc1cc2c(cn1)CN(C(=O)Nc1nc(-c3cccnc3)ccc1N)C2 [Compound 8] | – | – |
| – | COCCn1cc2c(n1)CN(C(=O)Nc1nc(-c3ccc(F)cc3F)ccc1N)C2 [Compound 9] | 10800 nM | – |
| – | Cc1cc2c(cn1)CN(C(=O)Nc1nc(-c3cccnc3)ccc1N)C2 [Compound 12] | > 20000 nM | – |
| – | Cc1ncc2c(n1)CN(C(=O)Nc1nc(-c3ccc(F)cc3)ccc1N)C2 [Compound 14] | – | 31% |
| 500 to 5000 nM | CCc1ncc2c(n1)CN(C(=O)Nc1nc(-c3ccc(F)cc3)ccc1N)C2 [Compound 17] | – | 28% |
